pEC50: −log10 of the molar value. Read-outs that look alike come from different tables or passages of the source.
Target: T1, human GR (Homo sapiens, UniProt P04150)
T1 sequence (P04150 1-777): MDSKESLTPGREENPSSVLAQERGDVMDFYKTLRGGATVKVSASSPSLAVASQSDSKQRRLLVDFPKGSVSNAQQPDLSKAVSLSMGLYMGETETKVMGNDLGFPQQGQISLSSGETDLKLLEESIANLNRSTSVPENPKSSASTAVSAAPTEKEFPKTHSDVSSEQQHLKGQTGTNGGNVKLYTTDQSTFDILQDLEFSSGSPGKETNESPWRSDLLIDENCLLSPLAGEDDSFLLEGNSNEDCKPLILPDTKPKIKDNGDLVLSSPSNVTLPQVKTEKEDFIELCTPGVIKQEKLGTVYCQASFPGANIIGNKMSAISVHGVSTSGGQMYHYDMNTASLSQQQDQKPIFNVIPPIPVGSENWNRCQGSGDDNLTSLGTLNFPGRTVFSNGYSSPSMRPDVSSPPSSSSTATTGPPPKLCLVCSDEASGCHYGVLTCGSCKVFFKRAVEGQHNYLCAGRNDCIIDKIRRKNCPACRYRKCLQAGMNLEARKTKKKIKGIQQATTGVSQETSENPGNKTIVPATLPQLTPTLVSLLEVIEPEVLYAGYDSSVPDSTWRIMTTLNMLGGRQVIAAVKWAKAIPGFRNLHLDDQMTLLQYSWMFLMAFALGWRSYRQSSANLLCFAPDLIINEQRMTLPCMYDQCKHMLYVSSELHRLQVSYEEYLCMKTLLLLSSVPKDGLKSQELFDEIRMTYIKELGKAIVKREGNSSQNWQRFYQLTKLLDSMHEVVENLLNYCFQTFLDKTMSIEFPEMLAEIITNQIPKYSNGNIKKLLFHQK
Experiment: Transrepression Assay (GITAR), TNFα-β-lactamase reporter in U937 cells
Type: cell-based
Parameters: U937 cells contain an endogenous glucocorticoid receptor (GR); endogenous in cells; host or cells: U937 cells stably transfected with the TNF-alpha promoter/beta-lactamase reporter
Conditions: for GITAR > GRAMM % SEP: GITAR Emax minus GRAMMER Emax; for pEC50: U937 cells, inflection point, read-out: Transrepression U937 Cells GITAR IP
In short: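 Read-out: CCF2-AM β-lactamase signal after 70–90 min loading at room temperature. U937 TNF-α-promoter reporter cells (endogenous GR), compound 30–45 min at 37 °C, then PMA 5 ng/ml + LPS 100 ng/ml final, ~18 hr. Normalised to 100 nM dexamethasone = 100%.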

[1] = U-937, U937 cells, maximum activity, read-out: Transrepression U937 Cells GITAR Emax
[2] = U-937, activity repressed by 100 nM dexamethasone alone set as 100%, read-out: maximal activity in the transrepression (GITAR) assay

Structure (SMILES) | GITAR > GRAMM % SEP [%] | pEC50 | Emax [1] [%] | Emax [2] [%]
C[C@]12Cc3cnn(-c4ccc(F)cc4)c3C=C1CC[C@@H]2CN(Cc1ccccc1F)S(=O)(=O)c1cccc(C(N)=O)c1 [Example 192, 3-[((2-fluorobenzyl){[(4αR,5S)-1-(4-fluorophenyl)-4α-methyl-1,4,4α,5,6,7-hexahydrocyclopenta[f]indazol-5-yl]methyl}amino)sulfonyl]benzamide] | 23.2 | 5.54 | 27.5 | > 5
C[C@]12Cc3cnn(-c4ccc(F)cc4)c3C=C1CC[C@@H]2CN(CCCc1ccccc1)S(=O)(=O)c1ccccc1F [Example 195, 2-fluoro-N-{[(4αR,5S)-1-(4-fluorophenyl)-4α-methyl-1,4,4α,5,6,7-hexahydrocyclopenta[f]indazol-5-yl]methyl}-N-(3-phenylpropyl)benzenesulfonamide] | 17.1 | 6.31 | 30 | > 5
CC([C@H]1CCC2=Cc3c(cnn3-c3ccc(F)cc3)C[C@@]21C)N(CCc1ccccn1)S(=O)(=O)Cc1cccnc1 (stereo partly drawn) [Example 197, N-{1-[(4αR)-1-(4-fluorophenyl)-4α-methyl-1,4,4α,5,6,7-hexahydrocyclopenta[f]indazol-5-yl]ethyl}-1-pyridin-3-yl-N-(2-pyridin-2-ylethyl)methanesulfonamide] | 1.8 | 5.98 | 45.5 | > 5
C[C@]12Cc3cnn(-c4ccc(F)cc4)c3C=C1CC[C@@H]2CN(CCO)S(=O)(=O)Cc1ccccc1C(N)=O [Example 198, 2-({[{[(4αR,5S)-1-(4-fluorophenyl)-4α-methyl-1,4,4α,5,6,7-hexahydrocyclopenta[f]indazol-5-yl]methyl}(2-hydroxyethyl)amino]sulfonyl}methyl)benzamide] | 7.3 | 5.94 | 15.5 | > 5
CC(C)(O)CN(C[C@H]1CCC2=Cc3c(cnn3-c3ccc(F)cc3)C[C@@]21C)S(=O)(=O)c1ccccc1F [Example 199, 2-fluoro-N-{[(4αR,5S)-1-(4-fluorophenyl)-4α-methyl-1,4,4α,5,6,7-hexahydrocyclopenta[f]indazol-5-yl]methyl}-N-(2-hydroxy-2-methylpropyl)benzenesulfonamide] | 22.2 | 6.30 | 80.8 | > 5

Continued by rising pEC50, values first:

GITAR > GRAMM % SEP [%] | pEC50 | Emax [1] [%] | Emax [2] [%] | Structure (SMILES)
21.7 | 6.31 | 69.5 | > 5 | C[C@]12Cc3cnn(-c4ccc(F)cc4)c3C=C1CC[C@@H]2CN(CC1(O)CCCCC1)S(=O)(=O)c1ccccc1F [Example 201, 2-fluoro-N-{[(4αR,5S)-1-(4-fluorophenyl)-4α-methyl-1,4,4α,5,6,7-hexahydrocyclopenta[f]indazol-5-yl]methyl}-N-[(1-hydroxycyclohexyl)methyl]benzenesulfonamide]
10.1 | 6.36 | 37.2 | > 5 | C[C@]12Cc3cnn(-c4ccc(F)cc4)c3C=C1CC[C@@H]2CN(CC1CCCO1)S(=O)(=O)c1ccc(C(N)=O)cc1 (stereo partly drawn) [Example 191, 4-{[{[(4αR,5S)-1-(4-fluorophenyl)-4α-methyl-1,4,4α,5,6,7-hexahydrocyclopenta[f]indazol-5-yl]methyl}(tetrahydrofuran-2-ylmethyl)amino]sulfonyl}benzamide]
12.4 | 6.41 | 77.4 | > 5 | C[C@]12Cc3cnn(-c4ccc(F)cc4)c3C=C1CC[C@@H]2CN(CCc1ccccc1F)S(=O)(=O)Cc1ccccc1C(N)=O [Example 190, 2-{[([2-(2-fluorophenyl)ethyl]{[(4αR,5S)-1-(4-fluorophenyl)-4α-methyl-1,4,4α,5,6,7-hexahydrocyclopenta[f]indazol-5-yl]methyl}amino)sulfonyl]methyl}benzamide]
3.7 | 6.41 | 40.3 | > 5 | C[C@]12Cc3cnn(-c4ccc(F)cc4)c3C=C1CC[C@@H]2CN(CCc1ccccn1)S(=O)(=O)Cc1ccccc1C(N)=O [Example 196, 2-({[{[(4αR,5S)-1-(4-fluorophenyl)-4α-methyl-1,4,4α,5,6,7-hexahydrocyclopenta[f]indazol-5-yl]methyl}(2-pyridin-2-ylethyl)amino]sulfonyl}methyl)benzamide]
28.4 | 6.51 | 85.9 | > 5 | C[C@]12Cc3cnn(-c4ccc(F)cc4)c3C=C1CC[C@@H]2CN(CC1(O)CC1)S(=O)(=O)c1ccccc1F [Example 200, 2-fluoro-N-{[(4αR,5S)-1-(4-fluorophenyl)-4α-methyl-1,4,4α,5,6,7-hexahydrocyclopenta[f]indazol-5-yl]methyl}-N-[(1-hydroxycyclopropyl)methyl]benzenesulfonamide]
14.4 | 6.54 | 56.2 | > 5 | Cc1noc(C)c1S(=O)(=O)N(CCCc1ccccc1)C[C@H]1CCC2=Cc3c(cnn3-c3ccc(F)cc3)C[C@@]21C [Example 194, N-{[(4αR,5S)-1-(4-fluorophenyl)-4α-methyl-1,4,4α,5,6,7-hexahydrocyclopenta[f]indazol-5-yl]methyl}-3,5-dimethyl-N-(3-phenylpropyl)isoxazole-4-sulfonamide]
18.6 | 6.77 | 74 | > 5 | C[C@]12Cc3cnn(-c4ccc(F)cc4)c3C=C1CC[C@@H]2CN(CCCc1ccccc1)S(=O)(=O)CC(F)(F)F [Example 193, 2,2,2-trifluoro-N-{[(4αR,5S)-1-(4-fluorophenyl)-4α-methyl-1,4,4α,5,6,7-hexahydrocyclopenta[f]indazol-5-yl]methyl}-N-(3-phenylpropyl)ethanesulfonamide]

— US8299048B2, “Hexahydrocyclopentyl[f]indazole sulfonamides and derivatives thereof as selective glucocorticoid receptor modulators” (Merck Sharp & Dohme Corp., priority 2008, dated 2012)
